Measurements as given in PMC12472597, “Pan-Amyloid Reactive Peptides p5+14 and p5R Exhibit Specific Charge-Dependent Binding to Glycosaminoglycans” (Pharmaceuticals, 2025).
Entries after “also recorded” stand apart in the source; their conditions may differ. One block for each molecule: values may come before it. No end group written: not given here.

Columns and labels:
[1] = GAG microarray binding (47 GAGs); conditions: biotinylated peptide
Experimental: To assess the binding selectivity of biotinylated p5+14 and p5R peptides, we used a commercial glycosaminoglycan (GAG) binding microarray (ZBiotech, CO, USA), which contains 16 subarrays each consisting of 47 differing GAGs (varying lengths, charges, and composition (Supplementary Figure S1)) plus internal controls. Increasing concentrations of each peptide were evaluated on the subarrays. The GAG arrays consisted of exemplar hyaluronic acid (HA), heparin, chondroitin sulfate A/C (CS-AC), chondroitin sulfate D (CS-D), dermatan sulfate (DS), heparan sulfate (HS with low to intermediate sulfation levels), heparan sulfate (HS with high sulfation levels), and […] (KS). Background corrected binding of peptides p5+14 and p5R, at 2 µg/mL, to each GAG is shown in Figure 4A,B (additional concentrations are shown in Supplementary Figure S2). […] For heparin and highly sulfated HS, the binding intensity closely paralleled the total negative charge for each GAG (Figure 4C).
Glycosaminoglycan (GAG) microarray binding studies were performed by Z Biotech (Z Biotech, LLC, Aurora, CO, USA). Briefly, microarrays were laid out in a 16-subarray arrangement with 47 GAG or 24 heparan sulfate (HS) binding targets per subarray. Spotted arrays were blocked at room temperature (RT) for 30 min with Glycan Array Blocking Buffer (Z Biotech, LLC, Aurora, CO, USA) before being washed. Biotinylated peptides were diluted in blocking buffer + 1% bovine serum albumin to final concentrations of 50, 10, 2, 0.4, and 0.08 µg/mL and the solutions added to the arrays for 1 h at RT. […] The fluorescence emission was quantified by scanning at 532 nm and evaluated using Mapix microarray software (Innopsys, Carbonne, France). […]
(§1) Data visualization, statistical analysis, and correlations were performed using GraphPad Prism v 9.4.1 or later. […] Apparent affinities (Ec50) of peptides to array substrates were calculated using sigmoidal 4PL curve fitting to calculate the Ec50 in µg/mL, which was converted to molarity using the appropriate peptide molecular weight.

[2] = GAG array apparent EC50, heparin (GAG16); assay type: binding; conditions: biotinylated peptide, 1 h RT, n = 4
Text: (§2) One exemplar GAG from the groups of heparin, HS, CS-AC, and CS-D was chosen to assess the Ec50 (concentration at the midpoint of binding). Bound peptide fluorescence was plotted against the concentration of peptide and a sigmoidal 4PL binding curve fit to the data (Figure 6). For GAGs with high peptide binding (heparin, HS, and highly sulfated CS-D), Ec50 calculations could be performed for both biotinylated p5+14 and p5R (Figure 6A,C,D). […] The differential binding potency, despite the shared selectivity, is likely due to the higher net charge on p5+14 (+12) compared with p5R (+8).
(§3) Glycosaminoglycan (GAG) microarray binding studies were performed by Z Biotech (Z Biotech, LLC, Aurora, CO, USA). Briefly, microarrays were laid out in a 16-subarray arrangement with 47 GAG or 24 heparan sulfate (HS) binding targets per subarray. […] The fluorescence emission was quantified by scanning at 532 nm and evaluated using Mapix microarray software (Innopsys, Carbonne, France). […]
as §1

[3] = GAG array apparent EC50, CS-AC (GAG22); assay type: binding; conditions: biotinylated peptide, n = 4; for EC50: 1 h RT, 4PL fit
Text: as §2
(§4) Glycosaminoglycan (GAG) microarray binding studies were performed by Z Biotech (Z Biotech, LLC, Aurora, CO, USA). Briefly, microarrays were laid out in a 16-subarray arrangement with 47 GAG or 24 heparan sulfate (HS) binding targets per subarray. Spotted arrays were blocked at room temperature (RT) for 30 min with Glycan Array Blocking Buffer (Z Biotech, LLC, Aurora, CO, USA) before being washed. Biotinylated peptides were diluted in blocking buffer + 1% bovine serum albumin to final concentrations of 50, 10, 2, 0.4, and 0.08 µg/mL and the solutions added to the arrays for 1 h at RT. The arrays were then washed again and streptavidin-Cy3 (0.2 µg/mL) added, followed by a 1-h incubation. The fluorescence emission was quantified by scanning at 532 nm and evaluated using Mapix microarray software (Innopsys, Carbonne, France). Background control data were subtracted from binding signals before the data were averaged.
(§5) Data visualization, statistical analysis, and correlations were performed using GraphPad Prism v 9.4.1 or later. Correlations of peptide binding to microarray substrates were performed using Pearson’s correlations. Apparent affinities (Ec50) of peptides to array substrates were calculated using sigmoidal 4PL curve fitting to calculate the Ec50 in µg/mL, which was converted to molarity using the appropriate peptide molecular weight.

[4] = GAG array apparent EC50, CS-D (GAG28); assay type: binding; conditions: biotinylated peptide; for EC50: 1 h RT, 4PL fit, n = 4
Text: as §2, §4, §5

[5] = GAG array apparent EC50, HS (GAG46); assay type: binding; conditions: biotinylated peptide, highly sulfated HS, 4PL fit, n = 4
Text: as §2, §3, §1

[6] = Heparan sulfate microarray binding (24 HS); conditions: biotinylated peptide; 0.4, 2, 10 µg/mL; n = 6
Experimental: This array comprised 24 structurally unique synthetic HS domains that varied in length, net charge, and charge density (Supplementary Figure S3). The binding of biotinylated peptides p5+14 (Figure 7A) and p5R (Figure 7B) to the HS array was performed as above, using increasing concentrations of peptide. The intensity of binding for both peptides, based on the fluorescence intensity, was closely related to the total charge (total sulfations) of the ligand (Figure 7, shown in red).
as §3, with “subarray. Spotted arrays were blocked at room temperature (RT) for 30 min with Glycan Array Blocking Buffer (Z Biotech, LLC, Aurora, CO, USA) before being washed.” for “subarray.”
as §1

[7] = HS array apparent Ec50, HS13; assay type: binding; conditions: biotinylated peptide; increasing peptide concentration; n = 6
Experimental: (§6) Biotinylated peptide binding to four of the HS glycans in the array were analyzed further to assess the estimated binding potency (Figure 9). […] The HS glycans used in this binding analysis contained fewer saccharide units and less total charge compared with that shown in Figure 6D, which may explain the difference in the estimated potency data.
as §3, with “subarray. Spotted arrays were blocked at room temperature (RT) for 30 min with Glycan Array Blocking Buffer (Z Biotech, LLC, Aurora, CO, USA) before being washed.” for “subarray.”
as §1

[8] = HS array apparent Ec50, HS16; assay type: binding; conditions: biotinylated peptide, 4PL fit, n = 6
Experimental: as §6
as §3, with “subarray. Spotted arrays were blocked at room temperature (RT) for 30 min with Glycan Array Blocking Buffer (Z Biotech, LLC, Aurora, CO, USA) before being washed.” for “subarray.”
as §1

[9] = HS array apparent Ec50, HS22; assay type: binding; conditions: biotinylated peptide, 4PL fit, n = 6
Experimental: as §6
as §3, with “subarray. Spotted arrays were blocked at room temperature (RT) for 30 min with Glycan Array Blocking Buffer (Z Biotech, LLC, Aurora, CO, USA) before being washed.” for “subarray.”
as §1

[10] = HS array apparent Ec50, HS24; assay type: binding; conditions: biotinylated peptide, 4PL fit, n = 6
Experimental: as §6
as §3, with “subarray. Spotted arrays were blocked at room temperature (RT) for 30 min with Glycan Array Blocking Buffer (Z Biotech, LLC, Aurora, CO, USA) before being washed.” for “subarray.”
as §1

[11] = Circular dichroism secondary structure; assay type: physicochemical
Experimental: Peptide secondary structures were analyzed by circular dichroism using an Olis RSM 1000 (On-line Instrument Systems, Inc., Bogart, GA, USA). Each study consisted of three replicates that were averaged and the dilution/background spectra subtracted. Non-biotinylated peptides were diluted to 0.05 mg/mL in phosphate buffered saline (PBS). For experiments involving the addition of enoxaparin (Amphastar Pharmaceuticals Inc., Rancho Cucamonga, CA., USA), enoxaparin was added to diluted peptide in PBS to reach a final concentration of 0–66.7 µg/mL. For experiments involving the addition of 2,2,2-trifluoroethanol (TFE) (Thermo Fisher Scientific, Waltham, MA, USA), TFE was added to diluted peptide in PBS to reach a final concentration of 0–40%.

[12] = PET/CT imaging of patients with systemic amyloidosis; assay type: in vivo, human; conditions: PET/CT at 5 h post injection
Experimental: Patients were imaged with p5+14 as part of the first-in-human, open label, Phase 1 study (NCT03678259). Synthesis of ^124I-labeled p5+14 has previously been reported. Briefly, lyophilized human grade peptide (Attralus, Inc., Naples, FL, USA) was radiolabeled on the day of use with iodine-124 (3D Imaging, Little Rock, AR, USA) using iodogen as the oxidant. Subjects were administered a 2 mCi dose of I-124 (<2 mg of peptide) intravenously. PET/CT images were acquired from crown to thighs at 5 h post injection, using a Siemens Biograph PET/CT (Siemens Healthineers, Malvern, PA, USA) with 5 min bed positions for the PET and a low dose CT (120 kVp, 50 effective mAs).
Data were reconstructed using a 3-dimensional ordered subset expectation maximization algorithm with attenuation and prompt gamma corrections, a 168 × 168 image matrix, and an image resolution of ~8 mm full width at half maximum. CT reconstruction utilized a medium smoothing kernel and 4 mm reconstruction increments. Patient PET/CT images were generated using Inveon Research Workplace software (Ed. 4.2 [4.2.0.15]; Siemens Preclinical Solutions).

[13] = cited from earlier work
Text: The concept of pan-amyloid reactive agents is not a new one. […] The binding sites are recurring with defined periodicity, which results in Congo red birefringence when stained amyloid is viewed under cross polarized illumination,a and a red shift in the emission maximum and increase in the quantum yield when thiofl ...

[14] = cited from earlier work; remark: listed apart in the source
Text: Both peptides consist of a repeating heptad structure with periodic lysine (p5+14; -XXKXXXK-) or arginine (p5R; -XXRXXXR-) amino acids. […] These peptides also avidly bind other highly negatively charged linear molecules such as heparin and hypersulfated HSPG, the latter of which is associated with amyloid deposits in vivo [18, 20, 21, 22].

[15] = clinical studies (NCT02603172); cited from earlier work
Experimental: The impact of accessory proteins in amyloid deposits remains unclear; however, some components have been evaluated extensively. Serum amyloid P component, for example, was thought to stabilize the amyloid pathology and render it resistant to proteolysis and immunological clearance. This hypothesis was tested using a small molecule drug (miridesap) that crosslinks SAP, thereby clearing it from amyloid deposits, potentially leading to their clearance. […] This was ...

[16] = array in blocking buffer + 1% BSA, 0.08-50 µg/mL, streptavidin-Cy3, 532 nm, read-out: Apparent EC50
[17] = converted from µg/mL using peptide molecular weight, read-out: Apparent EC50 (Molarity)
[18] = HS array in blocking buffer + 1% BSA, 1 h RT, streptavidin-Cy3, 532 nm, read-out: Apparent Ec50
[19] = converted from µg/mL using peptide molecular weight, read-out: Apparent Ec50 (Molarity)
[20] = initial spectrum, non-biotinylated peptide 0.05 mg/mL in PBS, n = 3

- Binding to GAGs that were not heparin or HS ([1]; 2 µg/mL, n = 4): very little binding
- EC50 ([2]; array in blocking buffer + 1% BSA, 0.08-50 µg/mL, streptavidin-Cy3, 532 nm, sigmoidal 4PL fit, read-out: Apparent EC50): 1.2 µg/mL
- EC50 ([2]; converted from µg/mL using peptide molecular weight, 4PL fit, read-out: Apparent EC50 (Molarity)): 251 nM
- EC50 [3, 16]: 3.38 µg/mL
- EC50 [3, 17]: 708 nM
- Binding to CS-AC ([3]; fluorescence au vs peptide concentration): saturable binding
- EC50 [4, 16]: 1.33 µg/mL
- EC50 [4, 17]: 280 nM
- EC50 ([5]; array in blocking buffer + 1% BSA, 0.08-50 µg/mL, 1 h RT, streptavidin-Cy3, 532 nm, read-out: Apparent EC50): 0.932 µg/mL
- EC50 [5, 17]: 196 nM
- Binding to HS13 [7]: did not reach saturation
- EC50 [8, 18]: 0.668 µg/mL
- EC50 [8, 19]: 140 nM
- EC50 [9, 18]: 0.473 µg/mL
- EC50 [9, 19]: 99.3 nM
- EC50 [10, 18]: 0.448 µg/mL
- EC50 [10, 19]: 94 nM
- Secondary structure in solution ([11]; PBS pH 7.2): partially unfolded states in solution
- Secondary structure with low molecular weight heparin ([11]; in PBS with enoxaparin): adopt an α-helical structure
- CD large minimum [11, 20]: 208 nm
- CD smaller minimum [11, 20]: 222 nm
- Ratio of the CD minima with enoxaparin ([11]; non-biotinylated peptide 0.05 mg/mL in PBS, higher concentrations of enoxaparin (0-66.7 µg/mL), n = 3): ≥ 1
- Ratio of the CD minima with TFE ([11]; non-biotinylated peptide 0.05 mg/mL in PBS, increasing TFE (0-40%), n = 3): ≥ 1
Molecule: GGGYSKAQKAQAKQAKQAQKAQKAQAKQAKQAQKAQKAQAKQAKQ [p5+14, 45-residue polybasic lysine heptad-repeat peptide, net charge +12]
- GAG binding selectivity ([1]; 2 µg/mL, background corrected fluorescence, n = 4): preferential binding to heparin and highly sulfated HS GAGs; also recorded: Little to no binding to HA, CS-AC, CS-D (with singular exception), DS, and KS
- Affinity for heparin and HS immobilized in the arrays ([1]; compared with biotinylated p5R, GAG and HS arrays): higher affinity for both heparin and HS immobilized in the arrays
- Reactivity with CS-D GAGs ([4]; GAG28 compared with GAG23-GAG27): abrupt intense reactivity of the peptides with GAG28, but none of the other CS GAGs (GAG23-GAG27)
- HS binding pattern [6]: the binding to HS appeared to correlate precisely with the total charge of the HS
- Organ uptake in patients ([12]; 2 mCi (<2 mg of peptide) i.v., patients with systemic amyloidosis): consistent with uptake in organs and tissues clinically known or suspected of amyloid deposition
- Organ uptake in healthy subjects ([12]; 2 mCi i.v., healthy subjects): no pathologic uptake was observed

Molecule: serum amyloid P-component: biological reagent that exhibits pan-amyloid reactivity
- Amyloid binding [13]: exhibit pan-amyloid reactivity

Molecule: GGGYSRAQRAQARQARQAQRAQRAQARQARQ [p5R]
- In vivo biodistribution vs basic fibroblast growth factor ([14]; ^125I-labeled): differed dramatically from that of the quintessential HSPG binding protein, basic fibroblast growth factor

Molecule: Nc1c(/N=N/c2ccc(-c3ccc(/N=N/c4cc(S(=O)(=O)O)c5ccccc5c4N)cc3)cc2)cc(S(=O)(=O)O)c2ccccc12 [Congo red]
- Amyloid binding [13]: bind all types of amyloid but not in a specific way

Molecule: O=C(O)[C@H]1CCCN1C(=O)CCCCC(=O)N1CCC[C@@H]1C(=O)O [miridesap]
- Removal of amyloid in patients [15]: failed to promote the meaningful removal of amyloid in patients

Molecule: bFGF: prototypical HS binding peptide [reference compound]
- Binding in healthy tissues ([14]; healthy liver tissue and renal glomerulae): strong reactivity with healthy liver tissue and renal glomerulae

Molecule: Cc1ccc2c(c1)sc(-c1ccc(N(C)C)cc1)[n+]2C [thioflavin T]
- Amyloid binding [13]: bind all types of amyloid but not in a specific way
